Data as given in patent US10189853B2, “Conformationally restricted 4-substituted-2,6-dimethylfuro[2,3-d]pyrimidines as anti-tumor agents” (DUQUESNE UNIVERSITY OF THE HOLY SPIRIT, priority 2014, dated 2019).

Experiments:
PDGFR-β = PDGFR-β (Homo sapiens (Human), UniProt P09619); test: PDGFR-β kinase inhibition, phosphotyrosine ELISA cytoblot; assay type: cell-based
Experimental: Cells used were tumor cell lines naturally expressing high levels of EGFR (A431), VEGFR-2 (U251), and PDGFR-β (SH-SYSY). […] The reaction was stopped and cells were permeabilized by quickly removing the media from the cells and adding ice-cold Tris-buffered saline (TBS) containing 0.05% Triton X-100, protease inhibitor cocktail and tyrosine phosphatase inhibitor cocktail. The TBS solution was then removed and cells fixed to the plate for 30 min at 60° C. and further incubation in 70% ethanol for an additional 30 min. Cells were further exposed to block (TBS with 1% BSA) for 1 h, washed, and then a horseradish peroxidase (HRP)-conjugated phosphotyrosine (PY) antibody was added overnight.

KM12 = test: NCI 60 cell line panel; assay type: cell-based; settings: Homo sapiens, Colon Cancer
UO-31 = test: NCI 60 cell line panel; assay type: cell-based; settings: Homo sapiens, Renal Cancer
SR = test: NCI 60 cell line panel; assay type: cell-based; settings: Homo sapiens, Leukemia
U251 = test: NCI 60 cell line panel; assay type: cell-based; settings: Homo sapiens, U-251, CNS Cancer
MDA-MB-231/ATCC = test: NCI 60 cell line panel; assay type: cell-based; settings: Homo sapiens, Breast Cancer
BT-549 = test: NCI 60 cell line panel; assay type: cell-based; settings: Homo sapiens
[1] = system: M6/6 cells (SK-OV-3 expressing Pgp); test: Antiproliferative SRB assay; settings: M6/6 (Pgp) vs SKOV3
HCT-116 = test: NCI 60 cell line panel; assay type: cell-based; settings: Homo sapiens, Colon Cancer
NCI/ADR-RES = test: NCI 60 cell line panel; assay type: cell-based; settings: Homo sapiens, Ovarian cancer
HCT-15 = test: NCI 60 cell line panel; assay type: cell-based; settings: Homo sapiens, Colon Cancer
TK-10 = test: NCI 60 cell line panel; assay type: cell-based; settings: Homo sapiens, Renal Cancer
CAKI-1 = test: NCI 60 cell line panel; assay type: cell-based; settings: Homo sapiens, Renal Cancer
A498 = test: NCI 60 cell line panel; assay type: cell-based; settings: Homo sapiens, Renal Cancer
A549/ATCC = test: NCI 60 cell line panel; assay type: cell-based; settings: Homo sapiens, NSCLC
SK-MEL-28 = test: NCI 60 cell line panel; assay type: cell-based; settings: Homo sapiens, Melanoma
MALME-3M = test: NCI 60 cell line panel; assay type: cell-based; settings: Homo sapiens, Melanoma
NCI-H322M = test: NCI 60 cell line panel; assay type: cell-based; settings: Homo sapiens, NSCLC
[2] = system: colchicine site on tubulin; test: Inhibition of [3H]colchicine binding
RPMI-8226 = test: NCI 60 cell line panel; assay type: cell-based; settings: Homo sapiens, Leukemia

PDGFR-β, sequence (P09619 33-1106): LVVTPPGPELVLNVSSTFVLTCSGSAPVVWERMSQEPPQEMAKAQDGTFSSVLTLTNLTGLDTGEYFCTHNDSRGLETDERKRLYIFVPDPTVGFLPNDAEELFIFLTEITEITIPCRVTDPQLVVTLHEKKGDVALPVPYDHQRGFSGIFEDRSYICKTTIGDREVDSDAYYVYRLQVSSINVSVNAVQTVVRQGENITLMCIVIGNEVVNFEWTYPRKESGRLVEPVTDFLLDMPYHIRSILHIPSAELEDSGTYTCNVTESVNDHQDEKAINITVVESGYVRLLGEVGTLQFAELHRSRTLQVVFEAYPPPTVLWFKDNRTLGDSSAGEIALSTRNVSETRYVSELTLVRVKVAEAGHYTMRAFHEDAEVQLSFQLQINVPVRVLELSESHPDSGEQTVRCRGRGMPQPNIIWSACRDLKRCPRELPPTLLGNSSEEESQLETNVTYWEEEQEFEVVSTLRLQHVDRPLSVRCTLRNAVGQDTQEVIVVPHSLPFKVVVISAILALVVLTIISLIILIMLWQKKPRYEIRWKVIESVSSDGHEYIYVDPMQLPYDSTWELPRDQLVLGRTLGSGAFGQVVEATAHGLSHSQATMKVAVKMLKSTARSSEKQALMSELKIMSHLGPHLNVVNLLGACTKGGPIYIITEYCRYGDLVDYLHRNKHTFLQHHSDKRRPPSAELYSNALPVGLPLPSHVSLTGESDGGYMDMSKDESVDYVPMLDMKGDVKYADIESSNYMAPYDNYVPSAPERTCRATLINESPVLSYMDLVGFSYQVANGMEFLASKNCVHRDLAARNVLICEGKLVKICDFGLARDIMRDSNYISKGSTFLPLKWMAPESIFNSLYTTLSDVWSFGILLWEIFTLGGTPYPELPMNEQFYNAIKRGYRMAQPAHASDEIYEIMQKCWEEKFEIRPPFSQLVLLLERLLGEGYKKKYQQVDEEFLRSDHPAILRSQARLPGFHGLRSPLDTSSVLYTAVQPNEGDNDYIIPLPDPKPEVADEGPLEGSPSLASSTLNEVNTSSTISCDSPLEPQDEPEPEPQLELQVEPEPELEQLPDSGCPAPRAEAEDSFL

Row | Compound | GI50 (KM12) | GI50 (UO-31) | GI50 (U251) | GI50 (MDA-MB-231/ATCC) | GI50 (BT-549) | GI50 (HCT-116) | GI50 (NCI/ADR-RES) | GI50 (HCT-15) | GI50 (TK-10) | GI50 (CAKI-1) | further results
1 | Cc1nc(N(C)c2ccc3occc3c2)c2cc(C)oc2n1 [Compound 7, N-1-benzofuran-5-yl-N,2,6-trimethylfuro[2,3-d]pyrimidin-4-amine] | 58.4 nM | 278 nM | 84 nM | 223 nM | 432 nM | 77.1 nM | 37.6 nM | 51.9 nM | 382 nM | 57.9 nM | IC50 (PDGFR-β; SH-SY5Y cells, phosphotyrosine ELISA): 25 ± 4.8 nM; fold better than sunitinib, PDGFR-β (PDGFR-β; vs sunitinib): about 4 fold; GI50 (SR): 62.4 nM; Rr value (relative resistance) [1]: 1.2
2 | COc1ccc2c(c1)CCCN2c1nc(C)nc2oc(C)cc12 [Compound 10, 4-(6-methoxy-3,4-dihydroquinolin-1(2H)-yl)-2,6-dimethylfuro[2,3-d]pyrimidine] | < 10 nM | < 10 nM | < 10 nM | 11.4 nM | < 10 nM | < 10 nM | < 10 nM | < 10 nM | < 10 nM | < 10 nM | GI50 (A498): < 10 nM; GI50 (A549/ATCC): < 10 nM; GI50 (SK-MEL-28): < 10 nM; GI50 (MALME-3M): < 10 nM; GI50 (NCI-H322M): < 10 nM; Inhibition of colchicine binding % inhibition ± SD ([2]; 1 μM): 82 ± 3%; Inhibition of colchicine binding % inhibition ± SD ([2]; 5 μM): 96 ± 1%; GI50 (RPMI-8226): < 10 nM
